Reference: patent US20250387391A1, “A SOLUBLE GUANYLAT CYCLASE ACTIVATOR FOR TREATING CHRONIC VASCULAR DYSFUNCTION” (Charité - Universitätsmedizin Berlin, priority 2022, published 2025)
Where two headings read alike, the source gives them in different places.

Tests used:
isolated sGC = details: cited from earlier work
platelet aggregation = details: via stimulation of cGMP synthesis; cited from earlier work
patient with ME/CFS = details: single patient, history of Giardia Lamblia infection, ME/CFS for 10 years; cited from earlier work
[1] = in vivo; cited from earlier work
[2] = tested on: liver fibrosis in two rat models; details: cited from earlier work
[3] = tested on: post-infectious ME/CFS patients
healthy subjects = details: cited from earlier work
[4] = tested on: endothelial dysfunction (ED) models; details: preclinical ED models and HF patients; cited from earlier work
NT-proBNP = details: cited from earlier work
[5] = tested on: subjects with heart failure with reduced ejection fraction (HfrEF); details: initial dose 2.5 mg, titrated to 10 mg at two-week intervals; cited from earlier work
patients with ADHF = details: intravenously administered; cited from earlier work
[6] = tested on: ZSF1 rat model of type 2 diabetes mellitus (T2DM)-induced nephropathy; details: cited from earlier work
intraocular pressure = details: animal models; cited from earlier work
[7] = humans; cited from earlier work
[8] = preclinical species; cited from earlier work
sGC = details: cited from earlier work
[9] = in vivo; cited from earlier work; remark: listed apart in the source
[10] = Vericiguat Pool (2.5 mg, 2.5 to 5 mg, 2.5 to 10 mg groups)

Compound: OCc1ccc(-c2nn(Cc3ccccc3)c3ccccc23)o1 [YC-1]
- Effect on sGC when combined with NO-releasing compounds (isolated sGC): strong synergistic effect
- sGC stimulation after oxidation or removal of the prosthetic heme moiety (isolated sGC): loss of stimulation
- Platelet aggregation (platelet aggregation): inhibiting platelet aggregation

Compound: COC(=O)N(C)c1c(N)nc(-c2nn(Cc3ccccc3F)c3ncccc23)nc1N [Riociguat]
- Symptoms of ME/CFS (patient with ME/CFS): some improvement in symptoms
- Risk of anemia as side effect [1]: 7.8%

Compound: O=C(O)CCCCN(CCc1cc(F)ccc1OCc1ccc(-c2ccc(C(F)(F)F)cc2)cc1)Cc1ccc(C(=O)O)cc1 [BAY 60-2770, 4-({(4-carboxy-butyl)[2-(5-fluoro-2-{[4′-(trifluoromethyl)biphenyl-4-yl]methoxy}phenyl)ethyl]amino}methyl)benzoic acid]
- Liver fibrosis [2]: attenuates liver fibrosis

Compound: COC(=O)Nc1c(N)nc(-c2nn(Cc3ccccc3F)c3ncc(F)cc23)nc1N [Vericiguat]
- Cognitive function ([3]; 1st patient): improved
- Sensitivity to light and noise ([3]; 1st patient): less sensitivity to light and noise
- Fatigue ([3]; 1st patient (ME/CFS triggered by COVID), 5 mg): improved
- Activity without getting PEM ([3]; 1st patient, 5 mg): much more activity was possible without getting PEM
- Quality of life, according to the patient ([3]; 2nd patient): significantly improved
- Effect of treatment (mainly cognitive) ([3]; 2nd patient (postinfectious ME/CFS, Bell of 20), 2.5 mg): only a minor positive effect
- Cognitive ability ([3]; 2nd patient, 5 mg, over a period of a few weeks): increase in cognitive ability
- Feeling of being sick ([3]; 2nd patient, compared to prior to treatment): reduced
- Headaches ([3]; 2nd patient, before medication about 3 days a week): almost completely disappeared
- Ability for cognitive work without triggering PEM ([3]; 2nd patient, increased from 1 h): more than 2 hours
- Headaches ([3]; 3rd patient): disappeared
- Muscle fasciculation ([3]; 3rd patient): decreased
- Sensitivity to noise ([3]; 3rd patient): improved
- Fatigue ([3]; 3rd patient (ME/CFS triggered by COVID), 2 weeks of 5 mg): improved
- Ability to work ([3]; 3rd patient, increased from 1): 2 to 3 h
- Drop in blood pressure ([3]; human, in vivo): no significant drop in blood pressure
- Effect on blood pressure ([3]; human, in vivo): almost no effect on blood pressure
- Tolerability ([3]; human, in vivo): very good
- PK interaction profile (healthy subjects; estimated in in vitro studies, confirmed in healthy subjects): low
- Severity of most treatment-emergent adverse events (healthy subjects; human, in vivo): mild-to-moderate severity
- Tolerability in clinical studies (healthy subjects; human, in vivo): well-tolerated
- Vascular function [4]: restores vascular function
- Risk of anemia as side effect [1]: 1.9%
- Difference of Means vs Placebo - log scale, change in log transformed NT-proBNP from baseline to week 12 (NT-proBNP; 1.25 mg): 0.0151 log [pg/mL]
- Ratio of Geometric Means vs Placebo - Back Transformed, NT-proBNP baseline to week 12 (NT-proBNP; 1.25 mg): 1.015
- Reduction in NT-proBNP at 12 weeks compared to placebo (NT-proBNP; 2.5 mg titrated at two-week intervals to 10 mg, p=0.0483): greatest reduction
- Difference of Means vs Placebo - log scale, change in log transformed NT-proBNP from baseline to week 12 (NT-proBNP; 2.5 mg): −0.0396 log [pg/mL]
- Ratio of Geometric Means vs Placebo - Back Transformed, NT-proBNP baseline to week 12 (NT-proBNP; 2.5 mg): 0.961
- Difference of Means vs Placebo - log scale, change in log transformed NT-proBNP from baseline to week 12 (NT-proBNP; 2.5 to 5 mg): −0.0731 log [pg/mL]
- Ratio of Geometric Means vs Placebo - Back Transformed, NT-proBNP baseline to week 12 (NT-proBNP; 2.5 to 5 mg): 0.930
- Difference of Means vs Placebo - log scale, change in log transformed NT-proBNP from baseline to week 12 (NT-proBNP; 2.5 to 10 mg): −0.2494 log [pg/mL]
- Ratio of Geometric Means vs Placebo - Back Transformed, NT-proBNP baseline to week 12 (NT-proBNP; 2.5 to 10 mg): 0.779
- Difference of Means vs Placebo - log scale, change in log transformed NT-proBNP from baseline to week 12 (NT-proBNP; [10]): −0.1220 log [pg/mL]
- Ratio of Geometric Means vs Placebo - Back Transformed, NT-proBNP baseline to week 12 (NT-proBNP; [10]): 0.885
- Secondary analysis: reduction of NT-proBNP at 12 weeks (NT-proBNP; across vericiguat doses): dose-response relationship
- Primary efficacy endpoint, change from baseline in log-transformed NT-proBNP vs placebo (NT-proBNP; pooled vericiguat group, 12 weeks): not significantly different
- Efficacy in terms of cardiovascular mortality and HF hospitalization [5]: superior to placebo

Compound: O=C(O)CCCCN(CCc1ccccc1OCc1ccc(CCc2ccccc2)cc1)Cc1ccc(C(=O)O)cc1 [Cinaciguat]
- Hemodynamic effect (patients with ADHF): potent unloading of the heart with arterial vasodilation

Compound: Cc1ccc(OCc2ccc(C(=O)N3CCCCC3)cc2C)c(-c2csc(C3CC4CCC(C3)C4C(=O)O)n2)c1 (stereo not shown) [BI 703704]
- In vivo activity [6]: displaying in vivo activity

Compound: Cc1cc(C2CCN(C(=O)C3CC3)CC2)ccc1NC1CCc2cccc(-c3cccc(-n4ncc(C(=O)O)c4C)n3)c21 (stereo not shown) [MGV354]
- Intraocular pressure (intraocular pressure): significantly lowered intraocular pressure

Compound: OC(CNc1nc(-c2cc(-c3ccon3)n(Cc3ccccc3F)n2)ncc1F)(C(F)(F)F)C(F)(F)F [Praliciguat]
- Pharmacokinetic half-life [7]: consistent with QD dosing
- Clearance route [8]: mainly hepatic clearance
- Half-life [8]: long half-life
- Tissue distribution [8]: extensive tissue distribution

Compound: [N]=O [NO, nitric oxide]
- Increase of sGC activity (sGC): about 200 fold

Compound: Fc1ccccc1Cc1nc(-c2nc(C(F)(F)F)n[nH]2)cn2ccnc12 [CY6463]
- Crossing of the blood-brain barrier [9]: readily crosses the blood-brain barrier
